In patent US20060229354A1, “Use of Isatin in stimulating red blood cell production and treatment of anemia” (priority 2005, published 2006):

How the values were obtained:
[1] = test system: freshly isolated peripheral blood mononuclear cells; experiment: Melphalan-induced apoptosis in peripheral blood mononuclear cells; assay type: cell-based; settings: data not shown
STAT5 = experiment: Immunoprecipitate analysis of STAT5 phosphorylation in UT7/EPO cells; assay type: cell-based; settings: FIG. 6
From the text: FIG. 6 illustrates the results of Immunoprecipiate analysis of the effects of EPO and Isatin on STAT5 phosphorylation in UT7/EPO Cells.
Activation of EPO-R by EPO is predominately mediated by JAK signaling pathway, and STAT5 protein is the major component involving in this signal transduction. We studied the activity of STAT5 in response to Isatin treatment.

RPM18226 cells = experiment: Melphalan-induced apoptosis in RPM18226 cells; assay type: cell-based; settings: data not shown
UT7/EPO cells [2] = experiment: Calcein-AM release assay, EPO-deprived UT7/EPO cells; assay type: cell-based; settings: Isatin treatment
Protocol: Calcein-AM was purchased from Molecular Probes (Eugene) as a 1 mg/ml solution in dry dimethyl sulfoxide. UT7/EPO cells were resuspended in complete medium at a final concentration of 10^6/ml and incubated with 15 uM calcein-AM for 30 mininutes at 37° C. with occasional shaking. After two washes in the same way as the ^51Cr assay in V bottom 96-well microtiter plates, with E:T ratios ranging from 50:1 to 0.5:1, in triplicate, and with at least six replicate wells for spontaneous and maximum release. Various numbers of UT7/EPO cells treated with Isatin or EPO or with untreated cells were seeded as follows. After incubation 37° C. in 5% CO2 for 4 hours, 75 ul of each supernatant was harvested and transferred into new plates. The samples were measured using a Sepctramax Gemini dual-scanning microplate spectrofluoimeter. Data were expressed as arbitrary fluorescent unites (AFU). Percent lysis was calculated with the same formula used for the ^51Cr for the ^51CR assay.

UT7/EPO cells [3] = experiment: MTT assay, EPO-deprived UT7/EPO cells; assay type: cell-based; settings: Isatin treatment
Protocol: UT7/EPO cells were cultured for 4 hours and then placed in triplicate in 96 well microtiter plates. The cell was treated with Isatin or EPO or PBS and cultured in 100 ul of DMEM, 10% FCS, overnight. The next day, media was removed and replace MTT assay solution. The plates were incubated for and addition 48 hours. And then cell viability was determined using a MTT assay, as described by manufacture (Sigma).

JAK2-associated EPOR = experiment: Immunoprecipitate study of phosphorylation of JAK2-associated EPOR in UT7/EPO cells; assay type: cell-based
Protocol: Referring to FIG. 5B, the Isatin-induced EPO-R phosphorylation occurs 5 minutes after the treatment and sustains beyond 1 hour afterwards.

MO7E cells = experiment: Apoptosis Assay (AA), GM-CSF-deprived MO7E cells; assay type: cell-based; settings: FIG. 4
UT7/EPO cells [4] = experiment: DNA Ladder Detection Assay, EPO-deprived UT7/EPO cells; assay type: cell-based; settings: Isatin treatment
Protocol: 10^6 UT7/EPO cells, after treated with either Isatin or EPO or PBS, was lysed with 150 ul hypotonic lysis buffer (10 mM EDTA, 0.5% Triton X-100 in […] Tris-HCl, pH 7.4) for 15 minutes on ice and were precipitated with 2.5% polyethylene glycerol and 1 M NaCl for 15 minutes at 4 C. After centrifugation at 16,000 rpm for 10 minutes at room temperature, the supernatant was incubated in the presence of proteinase K (0.3 g/L) at 37° C. for one hour and precipitated with isopropanol at −20° C. After centrifugation, each cell pellet was dissolved in 10 ul of Tris-EDTA (pH 7.6) and electrophoresed on a 1.5% agarose gell containing ethidium bromide. Ladder formation of oligonucleosomal DNA was detected under ultraviolet.

UT7/EPO cells [5] = experiment: Viable cell counts (trypan blue staining), EPO-deprived UT7/EPO cells; assay type: cell-based; settings: Isatin treatment
UT7/EPO cells [6] = experiment: Apoptosis Assay (AA), EPO-deprived UT7/EPO cells; assay type: cell-based
Protocol: UT7/EPO cells treated by Isatin or EPO or PBS was plated in triplicate in 96-well microtiter plates in 50 μl of culture medium and incubated for different time course. The cell apoptosis products were determined by Florence-probe. The cell apoptosis rate was calculated by positive apoptosis fragments.
We used several assays as mentioned in Materials and Methods section to evaluate the pharmacological activity of Isatin compound by examining the growth or the apoptosis of UT7/EPO cells. The cells used in AA assay are UT7/EPO. UT7/EPO cells were deprived from UT7 by elegant genetic engineering. As a result, the survival and growth of UT7/EPO cells rely on the stimulation of EPO-R by the exogenous EPO treatment. On the other hand, without the support of the exogenous EPO, the UT7/EPO cells will die. […] We used different assays to measure the level of apoptosis in UT7/EPO cells. If the tested compounds have erythropoietic agonist effect, the level of apoptosis in UT7/EPO cells should decrease in response to the treatment. […] Compared to EPO, higher dose of Isatin was required to generate the same extent of inhibition.

[7] = refrigerator between 2° C. and 8° C.; cited from earlier work
[8] = initial phase of therapy; cited from earlier work

IC50 (UT7/EPO cells [6]; Homo sapiens, UT-7/Epo, read-out: IC50 for inhibiting apoptosis in UT7/EPO cells) | Molecule | inhibition of Melphalan-induced apoptosis in freshly isolated peripheral blood mononuclear cells [1] | STAT5 activity (phosphorylation) during treatment (STAT5) | inhibition of Melphalan-induced apoptosis in RPM18226 cells (RPM18226 cells) | Calcein (cell viability) (UT7/EPO cells [2]) | MTT (cell viability) (UT7/EPO cells [3]) | duration of EPO-R phosphorylation after treatment (JAK2-associated EPOR; FIG. 5B) | time of onset of EPO-R phosphorylation after treatment (JAK2-associated EPOR; FIG. 5B) | phosphorylation of EPO-R through JAK2 mediated signaling pathway (JAK2-associated EPOR; FIGS. 5A and 5B) | phosphorylation of EPO-R, Isatin used together with EPO (JAK2-associated EPOR; Isatin together with EPO) | inhibition of GM-CSF withdrawal-induced apoptosis in MO7E cells (MO7E cells) | DNA Ladder Assay (UT7/EPO cells [4]) | Viable Cell Counts (trypan blue staining) (UT7/EPO cells [5]) | effect of Isatin used together with EPO on apoptosis inhibition / EPO-R activity (UT7/EPO cells [6]; Isatin together with EPO, UT7/EPO cells, FIG. 3) | AA (apoptosis) (UT7/EPO cells [6]; Isatin treatment, EPO-deprived UT7/EPO cells) | erythropoietic stimulation effect compared with EPO (UT7/EPO cells [6]; UT7/EPO cells, comparison with EPO) | apoptosis inhibition on UT7/EPO cells, concentration dependence (UT7/EPO cells [6]; increasing Isatin concentration, FIGS. 2A and 2B) | shelf life of multi-dose vials in refrigerator after the initial dose [7] | increase in the hematocrit [8]
~10 µM | O=C1Nc2ccccc2C1=O [Isatin, Indole-2,3-dione] | no noted inhibition | no change in STAT5 activity | no noted inhibition | ↑ | ↑ | > 1 h | 5 min | induces phosphorylation of EPO-R | significantly enhance the phosphorylation of EPO-R | no noted inhibition | ↓ | ↑ | synergistic effect | ↓ | weaker than that of EPO | steadily enhanced when the concentration of Isatin was increased |  | 
 | Epoetin alfa: recombinant EPO protein developed by Amgen, approved by FDA for the treatment of anemia |  |  |  |  |  |  |  |  |  |  |  |  |  |  |  |  | about 20 days | 2 % per week
